Here are results for twelve compounds from ChEMBL document CHEMBL5104093, “A comprehensive review on β-lapachone: Mechanisms, structural modifications, and therapeutic potentials” (Eur J Med Chem, 2021).

Values after ≈ are worked out from the molar mass of the structure shown.

The subject of one series is B16. Description: Cytotoxicity against mouse B16 cells assessed as reduction in cell viability incubated for 72 hrs by MTT assay. The conditions noted are these: B16, 72 h. The series is classed as functional, cell-based. In general terms: Tetrazolium dyes change colour on reduction, which living cells bring about.
A further series deals with Enterococcus faecalis. Description: Antibacterial activity against Enterococcus faecalis clinical isolates assessed as bacterial growth inhibition by broth macrodilution method. It is filed as functional.
In a further series the test system is HCT-8. Description: Cytotoxicity against human HCT-8 cells assessed as reduction in cell viability incubated for 72 hrs by MTT assay. Conditions: HCT-8, 72 h. It is filed as functional, cell-based.
In the next series the test system is MDA-MB-435. Description: Cytotoxicity against human MDA-MB-435 cells assessed as reduction in cell viability incubated for 72 hrs by MTT assay. The series is classed as functional, cell-based. Conditions: MDA-MB-435, 72 h.
Series [1] deals with SF-295. Description: Cytotoxicity against human SF-295 cells assessed as reduction in cell viability incubated for 72 hrs by MTT assay. The conditions noted are these: SF-295, 72 h. It is filed as functional, cell-based.
Series [2] deals with HL-60. Description: Cytotoxicity against human HL-60 cells assessed as reduction in cell viability incubated for 72 hrs by MTT assay. It is filed as functional, cell-based. Conditions: HL-60, 72 h.
For a further series, the system named is PC-3. Description: Cytotoxicity against human PC-3 cells assessed as reduction in cell viability incubated for 72 hrs by MTT assay. It is filed as functional, cell-based. The conditions noted are these: PC-3, 72 h.
Series [3] deals with Trypanosoma cruzi. Description: Antitrypanosomal activity against bloodstream form of Trypanosoma cruzi Y trypomastigotes infected in albino mouse assessed as reduction in viable parasite in blood by Neubauer counting chamber method. It is filed as functional, organism-based.
The nature of series [4]: Cytotoxicity against monkey LLC-MK2 cells assessed as reduction in cell viability incubated for 96 hrs by trypan blue assay. Conditions: rhesus monkey, read-out: LC50. It is filed as toxicity, cell-based, Macaca mulatta.
For the next series, the system named is MCF7. Description: Cytotoxicity against human MCF7 cells assessed as reduction in cell viability incubated for 72 hrs by MTT assay. The series is classed as functional, cell-based. Conditions: MCF7, 72 h.
Series [5] relates to HCT-116. Description: Cytotoxicity against human HCT-116 cells assessed as reduction in cell viability incubated for 72 hrs by MTT assay. It is filed as functional, cell-based. Conditions: HCT-116, 72 h.
The subject of series [6] is Trypanosoma cruzi. Description: Antitrypanosomal activity against bloodstream form of Trypanosoma cruzi Y trypomastigotes infected in Swiss Webster mouse assessed as reduction in viable parasite in blood incubated for 24 hrs by Neubauer counting chamber based light microscopic analysis. It is filed as functional, organism-based.
The test system of another series is SNB-19. Description: Cytotoxicity against human SNB-19 cells assessed as reduction in cell viability incubated for 72 hrs by MTT assay. The series is classed as functional, cell-based. The conditions noted are these: SNB-19, 72 h.
For another series, the system named is B16-F10. Description: Cytotoxicity against mouse B16-F10 cells assessed as reduction in cell viability incubated for 72 hrs by MTT assay. The series is classed as functional, cell-based. The conditions noted are these: B16-F10, 72 h.
Series [7] has as its system HL-60. Description: Cytotoxicity against human HL-60 cells assessed as reduction in cell viability by MTT assay. It is filed as functional, cell-based.
The next series deals with OVCAR-8. Description: Cytotoxicity against human OVCAR-8 cells assessed as reduction in cell viability by MTT assay. The series is classed as functional, cell-based.
Series [8] deals with HCT-116. Description: Cytotoxicity against human HCT-116 cells assessed as reduction in cell viability by MTT assay. The series is classed as functional, cell-based.
Series [9] concerns SF-295. Description: Cytotoxicity against human SF-295 cells assessed as reduction in cell viability by MTT assay. The series is classed as functional, cell-based.
Series [10] is described as follows: Cytotoxicity against mouse L929 cells assessed as reduction in cell viability incubated for 72 hrs by MTT assay. The series is classed as toxicity, cell-based.
For a further series, the system named is KB. Description: Cytotoxicity against human KB cells assessed as reduction in cell viability incubated for 48 hrs by MTT assay. It is filed as functional, cell-based.
For a further series, the system named is HepG2. Description: Cytotoxicity against human HepG2 cells assessed as reduction in cell viability incubated for 48 hrs by MTT assay. The series is classed as functional, cell-based. The conditions noted are these: HepG2, 48 h.
In another series the test system is HeLa. Description: Cytotoxicity against human HeLa cells assessed as reduction in cell viability incubated for 48 hrs by MTT assay. It is filed as functional, cell-based.
The subject of the next series is Sporothrix. Description: Antifungal activity against Sporothrix brasiliensis assessed as fungal growth inhibition incubated for 48 hrs by CLSI-based broth microdilution assay. The series is classed as functional. (In broth dilution the organism is exposed to a series of concentrations in liquid medium.)
In another series the test system is Sporothrix schenckii. Description: Antifungal activity against Sporothrix schenckii assessed as fungal growth inhibition incubated for 48 hrs by CLSI-based broth microdilution assay. The series is classed as functional.

In the case of `CC1(C)OC2=C(C(=O)C(=O)c3ccccc32)C1n1cc(C2(O)CCCCC2)nn1` (configuration not stated), the IC50 in the series on B16, with HCT-8, with MDA-MB-435, in the series with SF-295 [1], with HL-60 [2] and with PC-3 was 0.43 µM each time. In the series with Enterococcus faecalis, the MIC (in general, the smallest concentration in the dilution series that meets the test's criterion for growth inhibition) stood at 16 µg/mL (≈ 40.7 µM).

Regarding `CC1(C)OC2=C(C(=O)C(=O)c3ccccc32)C1n1cc(-c2ccccc2)nn1` (configuration not stated), the IC50 (in general, the concentration needed to halve the response being measured) is less than 1.21 µM with B16; less than 1.21 µM in the series with HCT-8; less than 1.21 µM in the series with MDA-MB-435; less than 1.21 µM in the series on SF-295 [1]; 1.21 µM in the series on HL-60 [2]; less than 1.21 µM in the series with PC-3. Also, the MIC in the series on Enterococcus faecalis amounted to 8 µg/mL (≈ 21.5 µM).

With `CCCCCCCCC1CC2=C(O1)c1ccccc1C(=O)C2=O` (configuration not stated), the half-maximal inhibitory concentration (IC50) in the series on Trypanosoma cruzi [3] was determined as 86.7 µM. In series [4], the CC50 at 96 h stood at 2200 µM.

On to `CC1(C)OC2=C(CC1[Se]c1ccc(F)cc1)C(=O)C(=O)c1ccccc12` (configuration not stated), for which the IC50 with MCF7 was 0.95 µM; in the series on HCT-116 [5], 0.95 µM; in the series on Trypanosoma cruzi [6], 38.3 µM; in the series with SNB-19, 0.95 µM; in the series with B16-F10 it was 0.95 µM; in the series on PC-3 it was 0.95 µM.

Take `CO[C@@H]1O[C@H](COC2C3=C(OC2(C)C)c2ccccc2C(=O)C3=O)[C@H]2OC(C)(C)O[C@@H]12` (some centres not stated): the IC50 in the series with HL-60 [7], in the series with OVCAR-8, with HCT-116 [8] and with SF-295 [9] was 0.16 µM each time.

As for `Cc1ccc(-c2cc(NC3C4=C(OC3(C)C)c3ccccc3C(=O)C4=O)n(-c3ccccc3)n2)cc1` (configuration not stated), the IC50 is 0.34 µM in the series with HL-60 [7], 0.99 µM in the series with OVCAR-8, 0.72 µM with HCT-116 [8] and 1.05 µM in the series on SF-295 [9].

Take `O=C1C(=O)c2ccccc2C2=C1CC(C[Se]c1cccs1)O2` (configuration not stated): the IC50 in the series with MCF7, with HCT-116 [5], in the series with SNB-19, in the series on B16-F10 and in the series on PC-3 was 1.06 µM each time. Further, the IC50 at 72 h in series [10] amounted to 1.06 µM.

As to `O=C1C(=O)c2ccccc2C2=C1CC(O)CO2` (configuration not stated), the half-maximal inhibitory concentration (IC50) in the series on KB, in the series on HepG2 and in the series on HeLa was 7.61 µM each time.

With `O=C(Cn1ccnc1[N+](=O)[O-])NCc1ccccc1` [BENZNIDAZOLE], the IC50 in the series with Trypanosoma cruzi [6] worked out at 104 µM. In addition, the CC50 at 96 h in series [4] came out at 324 µM.

In the case of `O=C(N[C@H](CO)[C@H](O)c1ccc([N+](=O)[O-])cc1)C(Cl)Cl` [CHLORAMPHENICOL], the MIC with Enterococcus faecalis worked out at 12 µg/mL (≈ 37.1 µM).

For `CCC(C)n1ncn(-c2ccc(N3CCN(c4ccc(OCC5COC(Cn6cncn6)(c6ccc(Cl)cc6Cl)O5)cc4)CC3)cc2)c1=O` (configuration not stated) [ITRACONAZOLE], the MIC in the series on Sporothrix and with Sporothrix schenckii was 0.125 µM (≈ 0.0882 µg/mL) each time.

For `CC1(C)COC2=C(C1)C(=O)C(=O)c1ccccc12` [RHINACANTHONE], the IC50 in the series on KB, in the series with HepG2 and in the series on HeLa was 6.9 µM each time.
